Legend:
uric acid in serum = assay: Lowering effect of test compound on the level of uric acid in serum (in vivo, oral administration); parameters: species or system mouse (normal male ICR mice); conditions: Mus musculus, 4 hours after administration, male ICR mice, suspended in 0.5% CMC-Na, read-out: in vivo Lowering rate (%) of uric acid in serum (in 4 hours)
Description: Experiment 2 (In Vivo: Oral Administration)
(1) Animals, Method of Administration and Sampling of Serum
Normal male ICR mice (weighting about 30 g), were provided normal diet and tap water ad libitum. A test compound suspended in 0.5% CMC-Na was administered orally to the mice (each group: 6 mice) in a dose of 5 mg/kg.
(2) Measurement of Amount of Uric Acid in Serum
To the serum (200 μl) was added 10% perchloric acid (100 μl), and the mixture was centrifuged. To the supernatant fluid (100 μl) was added 0.2M Na2 HPO4 (200 μl), and the mixture (20 μl) was analyzed by HPLC to measure the amount of uric acid. The HPLC was carried out under the following conditions.
Column: Cosmosil packed column (.phi. 4.6 mm×150 mm, 5C18 -300)
(§1) Eluting solution: 10 mM phosphate buffer (pH 6.0)
(§2) Retention time: 2.4 minutes (uric acid)
(3) Lowering Effect of Test Compound on the Level of Uric Acid in Serum
The lowering rate of uric acid in serum was calculated by the following equation. [formula]

Xanthine oxidase = target: T1, Xanthine oxidase (Mus musculus, UniProt Q00519); assay: Xanthine oxidase inhibition (in vitro), mouse small intestine xanthine oxidase solution, HPLC of uric acid; format: biochemical, mouse (ICR strain mice; conditions: xanthine substrate, incubated at 37° C. for 5 minutes; HPLC UV 292 nm
T1 construct: The small intestine was homogenized in 4-fold volume of cooled phosphate buffered saline solution (PBS) and then centrifuged; from tissue; host or cells: small intestine of ICR strain mice; dialysed supernatant of a 105,000 g centrifugation
T1 sequence (Q00519 whole entry): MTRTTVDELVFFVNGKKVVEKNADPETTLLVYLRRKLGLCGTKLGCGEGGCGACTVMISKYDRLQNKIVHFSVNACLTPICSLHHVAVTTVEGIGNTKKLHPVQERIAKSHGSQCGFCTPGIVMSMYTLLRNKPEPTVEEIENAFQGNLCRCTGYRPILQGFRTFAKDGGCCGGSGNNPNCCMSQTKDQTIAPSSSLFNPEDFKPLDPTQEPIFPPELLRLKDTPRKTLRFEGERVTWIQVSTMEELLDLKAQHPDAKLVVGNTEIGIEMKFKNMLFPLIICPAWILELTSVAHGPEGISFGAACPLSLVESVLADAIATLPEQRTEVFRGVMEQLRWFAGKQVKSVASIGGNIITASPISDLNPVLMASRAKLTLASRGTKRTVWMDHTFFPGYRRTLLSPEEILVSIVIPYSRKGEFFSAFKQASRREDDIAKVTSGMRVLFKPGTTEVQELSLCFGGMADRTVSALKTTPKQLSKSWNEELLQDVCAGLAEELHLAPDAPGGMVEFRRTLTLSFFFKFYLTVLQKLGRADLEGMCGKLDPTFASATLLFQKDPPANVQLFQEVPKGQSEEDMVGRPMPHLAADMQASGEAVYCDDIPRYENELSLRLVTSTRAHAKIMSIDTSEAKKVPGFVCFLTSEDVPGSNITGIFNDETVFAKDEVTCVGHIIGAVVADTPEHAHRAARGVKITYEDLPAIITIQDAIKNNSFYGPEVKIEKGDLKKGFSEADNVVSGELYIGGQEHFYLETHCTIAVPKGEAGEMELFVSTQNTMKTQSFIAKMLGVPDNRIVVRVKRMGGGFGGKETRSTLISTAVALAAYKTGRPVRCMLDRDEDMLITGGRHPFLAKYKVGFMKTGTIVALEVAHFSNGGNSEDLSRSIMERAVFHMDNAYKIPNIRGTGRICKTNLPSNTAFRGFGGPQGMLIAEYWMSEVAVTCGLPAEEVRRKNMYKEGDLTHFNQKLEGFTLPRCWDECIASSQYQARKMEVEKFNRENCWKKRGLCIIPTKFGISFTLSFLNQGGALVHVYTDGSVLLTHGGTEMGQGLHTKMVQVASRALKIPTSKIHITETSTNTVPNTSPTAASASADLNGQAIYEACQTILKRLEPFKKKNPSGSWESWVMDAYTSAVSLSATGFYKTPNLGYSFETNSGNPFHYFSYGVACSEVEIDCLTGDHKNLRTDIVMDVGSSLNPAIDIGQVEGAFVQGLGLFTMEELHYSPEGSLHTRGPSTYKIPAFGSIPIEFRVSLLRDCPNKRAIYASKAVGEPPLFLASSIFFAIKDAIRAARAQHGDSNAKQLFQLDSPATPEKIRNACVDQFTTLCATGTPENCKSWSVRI
Description: (1) Preparation of Xanthine Oxidase Solution
ICR strain mice were decapitated and the small intestine of each mouse was rapidly perfused with cooled physiological saline solution and removed. The small intestine was homogenized in 4-fold volume of cooled phosphate buffered saline solution (PBS) and then centrifuged at 105,000 g for 60 minutes. The supernatant fluid was dialyzed overnight against PBS. The dialyzed solution thus prepared was stored at -20° C. until used.
(2) Preparation of the Solution Containing the Present Compound
The compound of this invention was dissolved in DMSO (200 μl) and 2N NaOH (100 μl), and then PBS was added to prepare a solution (25 ml) containing 10^-3 M of the compound of this invention. This solution was diluted with PBS to prepare solutions containing the compound in the concentration of 10^-4, 10^-5, 10^-6, 10^-7, 10^-8, 10^-9, 10^-10, and 10^-11 M, respectively.
(3) Method for the Measurement
The assay mixture, consisted of the composition mentioned below, was incubated at 37° C. for 5 minutes. The reaction was stopped by heating in boiling water for one minute. Twenty microliters of the supernatant was analyzed by high performance liquid chromatography (HPLC) under the conditions mentioned below.
Xanthine oxidase solution (diluted in 4-folds with PBS): 200 μl
Solution containing the present compound: 200 μl
Column: osmosil packed column (.phi. 4. mm×150 mm, 5C18×300)
as §1, §2
(4) Percent Inhibition of the Compound Against Xanthine Oxidase
The percent inhibition was calculated by the following equation. [formula]
As to each of the solutions containing the present compound as prepared in the above (2), the percent inhibition was calculted, and IC50 values were obtained from a plot of the percent inhibition against the log of the concentration of the compound of this invention.

| IC50 (Xanthine oxidase) | Compound | inhibition in vivo at 5 mg/kg (uric acid in serum) |
| --- | --- | --- |
| 550 nM | CSc1cc(F)c(-c2cnn3c(O)ncnc23)cc1C [Example 54, 8-(2-Fluoro-5-methyl-4-methylthiophenyl)-4hydroxypyrazolo[1,5-a]-1,3,5-triazine] | 65.2% |
| 25 nM | COc1cc(-c2cnn3c(O)ncnc23)ccc1[S+]([O-])c1ccccc1 (stereo not shown) [Example 187, 4-Hydroxy-8-(3-methoxy-4-phenylsulfinylphenyl)pyrazolo[1,5-a]-1,3,5-triazine] | 63.9% |

From patent US4824834A, “Pyrazolotriazine compounds” (Otsuka Pharmaceutical Company, Limited, priority 1986, dated 1989)
